Laboratory results taken from US11667630B2, “Nitrogen-containing 6-membered cyclic compound” (Asahi Kasei Pharma Corporation, priority 2017, dated 2023).

What was measured:
human EP4 receptor = human EP4 receptor (Homo sapiens, UniProt P35408); test: Receptor binding test, [3H]PGE2 binding inhibition, EP4; design: purchased Merck Millipore HTS142M; conditions: [3H]PGE2 1.24 nmol/L, membrane fraction HTS142M, 25°C 60 minutes
Protocol: (§1) In order to evaluate selectivity to each EP receptor subtype, [^3H]PGE2 binding-inhibition activities of test compounds for cell membranes on which human EP2, human EP3, and human EP4 receptors were stably expressed were measured.
(§2) As the membrane fractions of the prostaglandin E receptors EP2, EP3, and EP4, 10.0 μg protein/tube each of HTS185M, HTS092M, and HTS142M of Merck Millipore were used, respectively. Each membrane fraction was incubated with a reaction mixture (250 μL/tube) containing a test compound and [3H]PGE2 at 25° C. for 60 minutes. […] After the reaction, the membrane fraction was collected on filter paper by using a cell harvester, the filter paper was transferred to a measurement vial, and the measurement was performed on a liquid scintillation counter.
(§3) The nonspecific binding was determined as binding observed in the presence of excess amount (10 μM) of unlabeled PGE2. The measurement of the [3H]PGE2 binding-inhibiting activity of a test compound was performed by adding the test compound at various concentrations. The following buffers were used for the reaction.
Buffer for EP4: 50 mmol/L HEPES-NaOH (pH7.4) containing 5 mmol/L MgCl2, 1 mmol/L CaCl2), and 0.2% BSA

rat femur = test: Neo-osteogenesis action in rat femur; format: in vivo; conditions: female SD rats, one week after administration
Protocol: Eight weeks old female SD rats (Charles River Japan) were fixed in the side lying position under triple anesthesia (medetomidine hydrochloride, midazolam, and butorphanol tartrate). After hair of the left femoral region was shaved with a hair clipper, and disinfection treatment was performed with 70% ethanol, an in situ-solidified gel solution of a test compound, specifically, a test compound dissolved in poly(lactic-co-glycolic acid) (RESOMER RG502H, produced by Evonik Industries)/poly(lactic-co-glycolic acid)-polyethylene glycol block copolymer (5050 DLG mPEG 5000, produced by Lakeshore Biomaterials)/N-methyl-2-pyrroridone (produced by Wako) (weight ratio 47%/3%/50%), was filled in a 1-mL syringe, a 21G injection needle was attached to the syringe, and the needle was transdermally stabbed from the quadriceps to the periosteum near the center of the femoral diaphyseal. Then, 100 μg as the amount of the test compound, or 50 μL as the administration volume of the solution was injected between the quadriceps and the periosteum, and the injection needle was drawn out. To the rats of the control group, the aforementioned in situ-solidified gel solution alone was administered. One week after the administration of the drug solution, the triple anesthesia was given to the animals, and they were fixed in the supine position, and euthanized by bleeding. […], circumferential tissues such as muscles were removed, the bone mineral content of the whole femur was measured by using a bone mineral analyzer DCS-600EX (produced by ALOKA), then it was divided into three portions along the long axis, and the bone mineral content of the center part (diaphysis) was evaluated. The test was performed with the groups each consisting of 6 animals.

human EP3 receptor = target: T1, human EP3 receptor (Homo sapiens, UniProt P43115); test: Receptor binding test, [3H]PGE2 binding inhibition, EP3; conditions: [3H]PGE2 1.54 nmol/L, membrane fraction HTS092M, 25°C 60 minutes
T1 construct: purchased Merck Millipore HTS092M
T1 sequence (P43115 1-390): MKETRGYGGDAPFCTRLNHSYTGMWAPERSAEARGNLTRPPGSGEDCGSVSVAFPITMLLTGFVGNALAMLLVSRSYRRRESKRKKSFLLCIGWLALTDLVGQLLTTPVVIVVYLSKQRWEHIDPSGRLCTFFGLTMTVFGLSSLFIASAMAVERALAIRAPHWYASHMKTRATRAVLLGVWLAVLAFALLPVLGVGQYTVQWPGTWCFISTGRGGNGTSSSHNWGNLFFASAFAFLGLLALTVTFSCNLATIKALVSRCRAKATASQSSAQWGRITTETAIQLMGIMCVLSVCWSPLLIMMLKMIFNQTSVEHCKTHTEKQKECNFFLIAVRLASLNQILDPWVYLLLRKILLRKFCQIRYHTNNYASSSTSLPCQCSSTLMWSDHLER
Protocol: as §1, §2, §3
Buffer for EP3: 50 mmol/L Tris-HCl buffer containing 10 mmol/L MgCl2, and 1 mmol/L EDTA

human EP4 receptor, sequence (P35408 whole entry): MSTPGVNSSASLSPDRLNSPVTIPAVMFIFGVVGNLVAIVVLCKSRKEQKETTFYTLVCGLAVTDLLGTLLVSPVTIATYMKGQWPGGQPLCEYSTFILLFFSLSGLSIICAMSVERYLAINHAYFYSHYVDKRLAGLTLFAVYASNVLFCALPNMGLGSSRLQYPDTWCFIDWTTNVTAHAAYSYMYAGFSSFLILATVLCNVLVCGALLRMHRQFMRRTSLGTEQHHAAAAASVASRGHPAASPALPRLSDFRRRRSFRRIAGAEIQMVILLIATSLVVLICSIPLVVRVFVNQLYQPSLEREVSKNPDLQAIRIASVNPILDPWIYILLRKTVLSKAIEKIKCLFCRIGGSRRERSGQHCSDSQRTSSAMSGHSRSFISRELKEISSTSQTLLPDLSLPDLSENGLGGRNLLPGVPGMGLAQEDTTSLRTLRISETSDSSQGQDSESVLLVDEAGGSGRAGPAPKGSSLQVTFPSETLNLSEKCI

SMILES: O=C(O)c1ccc(CCN2C(=O)SCCN2CC[C@@H](O)Cc2cccc(C#Cc3ccsc3)c2)s1 [Example 23, (S)-5-(2-(4-(3-Hydroxy-4-(3-(thiophen-3-ylethynyl)phenyl)butyl)-2-oxo-1,3,4-thiadiazinan-3-yl)ethyl)thiophene-2-carboxylic acid]
- IC50 (human EP4 receptor): 4.35 nM
- Bone mineral content of femur 1/3 center region (mg) Left femur (administered with compound) (rat femur; 100 μg test compound in in situ-solidified gel solution injected between quadriceps and periosteum): 82.7 ± 6.7 mg
- Bone mineral content of femur 1/3 center region (mg) Right femur (no administration of compound) (rat femur; contralateral femur, 100 μg test compound given at left femur): 58.9 ± 2.9 mg
- IC50 (human EP3 receptor): > 1000 nM
